Columns and labels:
BRG1 = molecular target: T1, BRG1 (Homo sapiens, UniProt P51532); assay: Immunofluorescence assay for BRG1 degradation in SW1573 cells; format: cell-based; conditions: 20 hours incubation; for DC50: immunofluorescence mean nuclear signal, read-out: BRG1 IF Degradation IC50; for Dmax: SW1573, 20 h, read-out: BRG1 IF Degradation Sinf (%)
T1 construct: either BRM primary antibody (Cell signaling Cat #11966) or BRG primary antibody (Abcam, ab 110641); endogenous in cells; host or cells: SW1573
How it was run: (§1)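 Read-out: mean per-cell nuclear BRM or BRG1 immunofluorescence by automated imaging. SW1573, 20 h compound, 4% formaldehyde fix, Triton permeabilization, overnight 4 °C primary antibody, fluorescent secondary plus Hoechst. Normalized to reference degrader; floating-max curve fit gives Dmax.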

BRM = BRM (Homo sapiens, UniProt P51531); assay: Immunofluorescence assay for BRM degradation in SW1573 cells; format: cell-based; design: treated overnight at 4° C. with either BRM primary antibody (Cell signaling Cat #11966) or BRG primary antibody; endogenous in cells; host or cells: SW1573; conditions: 20 hours incubation; for DC50: immunofluorescence mean nuclear signal, read-out: BRM IF Degradation IC50; for BRM IF Degradation Sinf (%): normalized to a known degrader control
How it was run: as §1

[1] = normalized to a known degrader control

BRM, sequence (P51531 whole entry): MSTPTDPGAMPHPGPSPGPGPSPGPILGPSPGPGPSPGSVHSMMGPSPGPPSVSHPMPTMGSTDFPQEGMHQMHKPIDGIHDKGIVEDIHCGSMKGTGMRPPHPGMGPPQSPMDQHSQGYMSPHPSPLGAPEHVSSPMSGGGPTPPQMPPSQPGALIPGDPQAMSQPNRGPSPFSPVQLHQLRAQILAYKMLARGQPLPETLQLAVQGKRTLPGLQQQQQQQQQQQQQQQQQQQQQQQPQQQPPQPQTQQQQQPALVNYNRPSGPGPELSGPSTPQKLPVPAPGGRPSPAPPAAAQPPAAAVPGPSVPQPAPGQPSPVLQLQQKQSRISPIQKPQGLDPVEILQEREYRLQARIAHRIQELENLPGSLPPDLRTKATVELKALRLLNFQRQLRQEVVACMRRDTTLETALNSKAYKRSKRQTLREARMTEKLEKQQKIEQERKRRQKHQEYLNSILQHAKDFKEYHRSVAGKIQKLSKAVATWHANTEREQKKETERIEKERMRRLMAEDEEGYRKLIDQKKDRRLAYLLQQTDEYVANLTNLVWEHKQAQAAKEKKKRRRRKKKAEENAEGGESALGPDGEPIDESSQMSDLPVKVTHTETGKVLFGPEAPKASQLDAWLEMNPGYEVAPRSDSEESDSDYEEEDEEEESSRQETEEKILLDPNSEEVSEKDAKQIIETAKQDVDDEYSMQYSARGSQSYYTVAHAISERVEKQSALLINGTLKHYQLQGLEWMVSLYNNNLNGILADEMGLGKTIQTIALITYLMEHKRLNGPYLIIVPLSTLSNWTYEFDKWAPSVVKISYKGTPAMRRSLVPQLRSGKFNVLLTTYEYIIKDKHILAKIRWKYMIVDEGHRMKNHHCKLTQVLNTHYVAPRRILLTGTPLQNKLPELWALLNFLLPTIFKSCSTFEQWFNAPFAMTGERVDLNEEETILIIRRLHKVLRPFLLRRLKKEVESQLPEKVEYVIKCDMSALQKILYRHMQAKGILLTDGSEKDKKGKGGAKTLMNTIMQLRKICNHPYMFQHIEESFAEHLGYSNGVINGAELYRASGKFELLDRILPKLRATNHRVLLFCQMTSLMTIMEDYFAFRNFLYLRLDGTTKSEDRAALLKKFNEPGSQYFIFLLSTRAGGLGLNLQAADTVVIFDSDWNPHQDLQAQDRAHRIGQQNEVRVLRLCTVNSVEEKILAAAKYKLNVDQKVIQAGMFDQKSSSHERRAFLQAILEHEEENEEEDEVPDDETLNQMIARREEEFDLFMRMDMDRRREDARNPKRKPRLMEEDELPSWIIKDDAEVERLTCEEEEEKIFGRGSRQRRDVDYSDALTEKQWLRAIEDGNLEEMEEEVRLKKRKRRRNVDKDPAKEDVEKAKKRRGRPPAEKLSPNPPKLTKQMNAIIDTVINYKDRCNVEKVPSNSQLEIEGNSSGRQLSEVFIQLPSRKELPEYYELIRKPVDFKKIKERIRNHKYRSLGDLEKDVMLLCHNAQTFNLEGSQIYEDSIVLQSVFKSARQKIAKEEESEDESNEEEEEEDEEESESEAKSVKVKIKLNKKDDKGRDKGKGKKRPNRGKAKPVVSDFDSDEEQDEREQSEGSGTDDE
T1 sequence (P51532 whole entry): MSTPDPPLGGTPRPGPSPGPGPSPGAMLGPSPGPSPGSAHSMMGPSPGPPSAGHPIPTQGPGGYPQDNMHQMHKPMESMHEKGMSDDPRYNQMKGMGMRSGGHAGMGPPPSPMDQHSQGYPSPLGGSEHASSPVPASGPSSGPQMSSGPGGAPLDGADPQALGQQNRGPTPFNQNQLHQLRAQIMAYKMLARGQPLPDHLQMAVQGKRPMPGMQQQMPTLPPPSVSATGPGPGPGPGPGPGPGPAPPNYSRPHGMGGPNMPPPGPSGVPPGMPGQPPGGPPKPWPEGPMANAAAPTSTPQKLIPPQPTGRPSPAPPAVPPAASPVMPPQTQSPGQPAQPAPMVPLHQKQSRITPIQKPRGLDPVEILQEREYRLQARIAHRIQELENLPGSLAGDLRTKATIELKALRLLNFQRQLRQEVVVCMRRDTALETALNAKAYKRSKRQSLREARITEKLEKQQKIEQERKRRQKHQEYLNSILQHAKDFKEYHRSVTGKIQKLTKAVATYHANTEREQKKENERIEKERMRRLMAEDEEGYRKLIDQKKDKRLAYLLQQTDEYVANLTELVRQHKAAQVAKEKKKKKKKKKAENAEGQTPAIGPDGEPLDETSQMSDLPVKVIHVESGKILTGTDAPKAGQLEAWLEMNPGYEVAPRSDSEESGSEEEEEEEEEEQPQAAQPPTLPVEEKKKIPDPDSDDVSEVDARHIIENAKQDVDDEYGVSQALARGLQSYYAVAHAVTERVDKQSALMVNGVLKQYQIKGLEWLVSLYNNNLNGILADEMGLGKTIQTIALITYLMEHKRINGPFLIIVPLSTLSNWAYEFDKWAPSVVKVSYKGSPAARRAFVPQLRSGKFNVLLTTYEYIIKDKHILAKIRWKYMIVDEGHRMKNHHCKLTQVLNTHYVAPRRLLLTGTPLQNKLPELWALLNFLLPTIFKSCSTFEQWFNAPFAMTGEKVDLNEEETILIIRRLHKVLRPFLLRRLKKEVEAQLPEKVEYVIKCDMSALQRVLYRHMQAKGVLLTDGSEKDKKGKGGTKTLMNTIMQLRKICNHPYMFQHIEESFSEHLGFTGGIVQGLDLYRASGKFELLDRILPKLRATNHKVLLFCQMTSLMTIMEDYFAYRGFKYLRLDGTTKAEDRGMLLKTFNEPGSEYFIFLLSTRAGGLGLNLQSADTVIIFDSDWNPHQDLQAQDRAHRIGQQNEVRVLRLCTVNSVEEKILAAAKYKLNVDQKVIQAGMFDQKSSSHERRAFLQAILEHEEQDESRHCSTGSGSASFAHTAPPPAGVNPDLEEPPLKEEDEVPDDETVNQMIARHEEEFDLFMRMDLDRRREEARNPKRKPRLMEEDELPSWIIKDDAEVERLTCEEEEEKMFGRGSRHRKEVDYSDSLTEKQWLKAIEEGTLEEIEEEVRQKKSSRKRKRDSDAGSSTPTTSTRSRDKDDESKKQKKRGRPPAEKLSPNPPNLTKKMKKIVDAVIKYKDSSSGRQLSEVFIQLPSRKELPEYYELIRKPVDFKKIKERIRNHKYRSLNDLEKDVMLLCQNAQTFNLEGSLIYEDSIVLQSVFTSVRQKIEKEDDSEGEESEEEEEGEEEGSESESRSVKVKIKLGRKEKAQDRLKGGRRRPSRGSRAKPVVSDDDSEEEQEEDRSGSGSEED

SMILES	DC50 (BRG1)	Dmax (BRG1; [1])	DC50 (BRM)	BRM IF Degradation Sinf (%) (BRM)	BRG1 IF Degradation Sinf (%) (BRG1; [1])
Nc1nnc(-c2ccccc2O)cc1N1CC2CCC(C1)N2c1ccnc(C#CCN2CC(O)(C3CC3)C2)c1 [Compound 154, 1-[3-[4-[3-[3-amino-6-(2-hydroxyphenyl)pyridazin-4-yl]-3,8-diazabicyclo[3.2.1]octan-8-yl]-2-pyridyl]prop-2-ynyl]-3-cyclopropyl-azetidin-3-ol]	< 10 nM	30 to 70%	< 10 nM	F (F indicates −71%-−120%)	
CN1CCOC2(C1)CN(CC#Cc1cc(N3C4CCC3CN(c3cc(-c5ccccc5O)nnc3N)C4)ccn1)C2 [Compound 188, 2-[6-amino-5-[8-[2-[3-(8-methyl-5-oxa-2,8-diazaspiro[3.5]nonan-2-yl)prop-1-ynyl]-4-pyridyl]-3,8-diazabicyclo[3.2.1]octan-3-yl]pyridazin-3-yl]phenol]	> 100 nM		> 100 nM	E (E indicates −30%-−70%)	
Nc1nnc(-c2ccccc2O)cc1N1CC2CCC(C1)N2c1ccnc(C#CCN2CCCCC2CO)c1 (stereo not shown) [Compound 55, 2-[6-amino-5-[8-[2-[3-[2-(hydroxymethyl)-1-piperidyl]prop-1-ynyl]-4-pyridyl]-3,8-diazabicyclo[3.2.1]octan-3-yl]pyridazin-3-yl]phenol]	10 to 100 nM	30 to 70%	10 to 100 nM	E (E indicates −30%-−70%)	
CC1(C)CCCN(CC#Cc2cc(N3C4CCC3CN(c3cc(-c5ccccc5O)nnc3N)C4)ccn2)CC1 [Compound 205, 2-[6-amino-5-[8-[2-[3-(4,4-dimethylazepan-1-yl)prop-1-ynyl]-4-pyridyl]-3,8-diazabicyclo[3.2.1]octan-3-yl]pyridazin-3-yl]phenol]	< 10 nM	30 to 70%	< 10 nM	F (F indicates −71%-−120%)	
N#CCC1CCN(CC#Cc2cc(N3C4CCC3CN(c3cc(-c5ccccc5O)nnc3N)C4)ccn2)CCC1(F)F (stereo not shown) [Compound 206, 2-[1-[3-[4-[3-[3-amino-6-(2-hydroxyphenyl)pyridazin-4-yl]-3,8-diazabicyclo[3.2.1]octan-8-yl]-2-pyridyl]prop-2-ynyl]-5,5-difluoro-azepan-4-yl]acetonitrile]	> 100 nM		10 to 100 nM	E (E indicates −30%-−70%)	
Nc1nnc(-c2ccccc2O)cc1N1CC2CCC(C1)N2c1ccnc(C#CCN2CC(F)(C3CC3)C2)c1 [Compound 238, 2-[6-amino-5-[8-[2-[3-(3-cyclopropyl-3-fluoro-azetidin-1-yl)prop-1-ynyl]-4-pyridyl]-3,8-diazabicyclo[3.2.1]octan-3-yl]pyridazin-3-yl]phenol]	< 10 nM	30 to 70%	10 to 100 nM	E (E indicates −30%-−70%)	
Nc1nnc(-c2ccccc2O)cc1N1CC2CCC(C1)N2c1ccnc(C#CCN2CCCOCC2)c1 [Compound 70, 2-[6-amino-5-[8-[2-[3-(l,4-oxazepan-4-yl)prop-1-ynyl]-4-pyridyl]-3,8-diazabicyclo[3.2.1]octan-3-yl]pyridazin-3-yl]phenol]	< 10 nM	30 to 70%	< 10 nM	E (E indicates −30%-−70%)	
Nc1nnc(-c2ccccc2O)cc1N1CC2CCC(C1)N2c1ccnc(C#CCN2CC(c3ccccc3)C2)c1 [Compound 234, 2-[6-amino-5-[8-[2-[3-(3-phenylazetidin-1-yl)prop-1-ynyl]-4-pyridyl]-3,8-diazabicyclo[3.2.1]octan-3-yl]pyridazin-3-yl]phenol]	10 to 100 nM	71 to 120%	10 to 100 nM	E (E indicates −30%-−70%)	
CC1(O)CCCCN(CC#Cc2cc(N3C4CCC3CN(c3cc(-c5ccccc5O)nnc3N)C4)ccn2)C1 (stereo not shown) [Compound 240, 1-[3-[4-[3-[3-amino-6-(2-hydroxyphenyl)pyridazin-4-yl]-3,8-diazabicyclo[3.2.1]octan-8-yl]-2-pyridyl]prop-2-ynyl]-3-methyl-azepan-3-ol]	10 to 100 nM	30 to 70%	10 to 100 nM	F (F indicates −71%-−120%)	
CNC(=O)C1CCCCN1CC#Cc1cc(N2C3CCC2CN(c2cc(-c4ccccc4O)nnc2N)C3)ccn1 (stereo not shown) [Compound 96, 1-[3-[4-[3-[3-amino-6-(2-hydroxyphenyl)pyridazin-4-yl]-3,8-diazabicyclo[3.2.1]octan-8-yl]-2-pyridyl]prop-2-ynyl]-N-methyl-piperidine-2-carboxamide]	10 to 100 nM	0 to 30%	> 100 nM	E (E indicates −30%-−70%)	
CC1(F)CN(CC#Cc2cc(N3C4CCC3CN(c3cc(-c5ccccc5O)nnc3N)C4)ccn2)C1 [Compound 173, 2-[6-amino-5-[8-[2-[3-(3-fluoro-3-methyl-azetidin-1-yl)prop-1-ynyl]-4-pyridyl]-3,8-diazabicyclo[3.2.1]octan-3-yl]pyridazin-3-yl]phenol]	10 to 100 nM	30 to 70%	10 to 100 nM	F (F indicates −71%-−120%)	
Nc1nnc(-c2ccccc2O)cc1N1CC2CCC(C1)N2c1ccnc(C#CCN2CC3(CCCOC3)C2)c1 [Compound 175, 2-[6-amino-5-[8-[2-[3-(6-oxa-2-azaspiro[3.5]nonan-2-yl)prop-1-ynyl]-4-pyridyl]-3,8-diazabicyclo[3.2.1]octan-3-yl]pyridazin-3-yl]phenol]	< 10 nM	30 to 70%	< 10 nM	E (E indicates −30%-−70%)	
Nc1nnc(-c2ccccc2O)cc1N1CC2CCC(C1)N2c1ccnc(C#CCN2CCc3ccccc3CC2)c1 [Compound 202, 2-[6-amino-5-[8-[2-[3-(1,2,4,5-tetrahydro-3-benzazepin-3-yl)prop-1-ynyl]-4-pyridyl]-3,8-diazabicyclo[3.2.1]octan-3-yl]pyridazin-3-yl]phenol]	10 to 100 nM	30 to 70%	10 to 100 nM	E (E indicates −30%-−70%)	
Nc1nnc(-c2ccccc2O)cc1N1CC2CCC(C1)N2c1ccnc(C#CCN2C[C@@H]3C[C@H]2C[C@H]3O)c1 [Compound 130, (1S,4S,5R)-2-[3-[4-[3-[3-amino-6-(2-hydroxyphenyl)pyridazin-4-yl]-3,8-diazabicyclo[3.2.1]octan-8-yl]-2-pyridyl]prop-2-ynyl]-2-azabicyclo[2.2.1]heptan-5-ol]	10 to 100 nM	30 to 70%	< 10 nM	E (E indicates −30%-−70%)	
Nc1nnc(-c2ccccc2O)cc1N1CCC2(CCN(c3ccnc(C#CCN4CCCCCC4)c3)CC2)CC1 [Compound 249, 2-(6-amino-5-(9-(2-(3-(azepan-1-yl)prop-1-yn-1-yl)pyridin-4-yl)-3,9-diazaspiro[5.5]undecan-3-yl)pyridazin-3-yl)phenol]	> 100 nM		< 10 nM	E (E indicates −30%-−70%)	
Nc1nnc(-c2ccccc2O)cc1N1CC2CCC(C1)N2c1ccnc(C#CCN2CCC23CCOC3)c1 (stereo not shown) [Compound 167, 2-[6-amino-5-[8-[2-[3-(7-oxa-1-azaspiro[3.4]octan-1-yl)prop-1-ynyl]-4-pyridyl]-3,8-diazabicyclo[3.2.1]octan-3-yl]pyridazin-3-yl]phenol]	< 10 nM		< 10 nM	F (F indicates −71%-−120%)	F (F indicates −71%-−120%)
Nc1nnc(-c2ccccc2O)cc1N1CC2CCC(C1)N2c1ccnc(C#CCN2CCCCC(O)(CF)C2)c1 (stereo not shown) [Compound 241, 1-[3-[4-[3-[3-amino-6-(2-hydroxyphenyl)pyridazin-4-yl]-3,8-diazabicyclo[3.2.1]octan-8-yl]-2-pyridyl]prop-2-ynyl]-3-(fluoromethyl)azepan-3-ol]	< 10 nM	0 to 30%	10 to 100 nM	E (E indicates −30%-−70%)	
Nc1nnc(-c2ccccc2O)cc1N1CC2CCC(C1)N2c1ccnc(C#CCNC(=O)C2CCNCC2)c1 [Compound 35, N-[3-[4-[3-[3-amino-6-(2-hydroxyphenyl)pyridazin-4-yl]-3,8-diazabicyclo[3.2.1]octan-8-yl]-2-pyridyl]prop-2-ynyl]piperidine-4-carboxamide]	> 100 nM		> 100 nM	E (E indicates −30%-−70%)	
CC1(F)CCCCN(CC#Cc2cc(N3C4CCC3CN(c3cc(-c5ccccc5O)nnc3N)C4)ccn2)C1 (stereo not shown) [Compound 243, 2-[6-amino-5-[8-[2-[3-(3-fluoro-3-methyl-azepan-1-yl)prop-1-ynyl]-4-pyridyl]-3,8-diazabicyclo[3.2.1]octan-3-yl]pyridazin-3-yl]phenol]	< 10 nM	30 to 70%	10 to 100 nM	F (F indicates −71%-−120%)	
CNC(=O)[C@@H]1CCCN1CC#Cc1cc(N2C3CCC2CN(c2cc(-c4ccccc4O)nnc2N)C3)ccn1 [Compound 163, (2S)-1-[3-[4-[3-[3-amino-6-(2-hydroxyphenyl)pyridazin-4-yl]-3,8-diazabicyclo[3.2.1]octan-8-yl]-2-pyridyl]prop-2-ynyl]-N-methyl-pyrrolidine-2-carboxamide]	> 100 nM	30 to 70%	10 to 100 nM	E (E indicates −30%-−70%)	
